Results on two compounds are retold here after patent US20190350889A1, “Compositions And Methods Of Use Of Phorbol Esters In The Treatment Of Parkinson's Disease” (priority 2016, published 2019).

For series [1] the following is noted: polar organic solvents and water; cited from earlier work.
The nature of series [2]: Dose ranging study: toxicity and side effects of different TPA doses administered clinically by i.v. infusion. The series is classed as in vivo, human. The procedure:
TPA solution in a sterile syringe was injected into 200 ml of sterile saline and mixed well for i.v. infusion.
One mg TPA in solution was mixed well with 200 ml of sterile saline for intravenous infusion which was completed in 1 h at the rate of 16 μg/min. […] The above symptoms could be alleviated by giving the patients glucocorticoids. […] However, these side effects were short lived and reversible.
0.5 mg of TPA in solution was mixed well with 200 ml of saline for intravenous infusion which was completed in 1 h at the rate of 8 μg/min. […] Difficulty in breathing was not observed. The cardiac, hepatic, renal and pulmonary functions were all normal.
0.25 mg of TPA in solution was mixed well with 200 ml of saline for intravenous infusion which was completed in 1 h at the rate of 4 μg/min. […] The cardiac, hepatic, renal and pulmonary functions were all normal.

For series [3] the following is noted: patients with bone marrow function depressed by chemotherapy; Han et al. 1998; cited from earlier work.
The subject of another series is HIV. Particulars: MT-4 cells; Mekkawy et al. 2000; cited from earlier work.
Where [4] appears, read: 0.25 mg/patient x 4/week, i.v. infusion.
Where [5] appears, read: 0.5 mg/patient x 2/week, i.v. infusion.
Where [6] appears, read: 1 mg/patient/week, i.v. infusion.
[7] abbreviates: 1 mg/patient/week, i.v. infusion in 1 h at 16 μg/min.

Each structure is given as a SMILES string.

In the case of `CC1=C[C@H]2[C@@]3(O)[C@H](C)[C@@H](O)[C@]4(O)[C@H]([C@@H]3C=C(CO)C[C@]2(O)C1=O)C4(C)C` [Phorbol], the solubility entry in series [1] is “well soluble in most polar organic solvents and in water”.

Regarding `CCCCCCCCCCCCCC(=O)O[C@@H]1[C@@H](C)[C@@]2(O)[C@@H](C=C(CO)C[C@]3(O)C(=O)C(C)=C[C@@H]23)[C@@H]2C(C)(C)[C@]12OC(C)=O` (stereo in doubt) [TPA, 12-O-tetradecanoylphorbol-13-acetate], in series [2] (setting [4]), the “Hb in the urine” value is listed as “No Hb was detected in the urine”; the “cardiac, hepatic, renal and pulmonary functions” value (from here on “cardiac, hepatic”) is reported as “all normal”; the difficulty in breathing entry is on record as “no patient suffered difficulty in breathing”. In addition, the “symptoms such as chills and fever” value in series [2] (0.25 mg/patient x 4/week, i.v. infusion in 1 h at 4 μg/min) is listed as “also observed, but to a much lesser extent than with the higher dosages”. For the same compound, in series [2] (setting [5]), the “Hb in the urine” value is on record as “Occasionally, Hb was detected in patients' urine”; the “cardiac, hepatic” value is on record as “all normal”; the difficulty in breathing entry is “not observed”; the tolerability result is “tolerated the lower dose more easily”. Also, in series [2] (setting [6]), the “Hb in the urine” value is “Hb was detected in the urine”; the bleeding entry is reported as “caused a minority of patients to bleed”; the “cardiac, hepatic” value was “all found to be normal”; the difficulty in breathing entry is on record as “several patients suffered for a short period of time difficulty in breathing”. Also, in series [2] (setting [7]), the duration of chills result is reported as “about 30 min”, the duration of fever fell in the range of 3 to 5 h, the “fever: patients' temperature reached” value was 37.5-39.5 °C and the “onset of chills after TPA administration” value is “One hour after TPA administration”. In addition, in series [2] (TPA application (reason for giving it by i.v. infusion)), the local irritation result is reported as “strong local irritation”. In addition, in series [3], the “circulating white blood cells and neutrophils” value was “cause an increase in circulating white blood cells and neutrophils”. In the series with HIV, the HIV-cytopathic effects entry is recorded as “inhibit the HIV-cytopathic effects on MT-4 cells”.
